The values below come from US10723751B2 (priority 2013, dated 2020).

Read-outs that look alike come from different tables or passages of the source. Bounds are passed on as bounds.

One data set concerns Pseudomonas Aeruginosa. Nature of the data set: Aerobic Culture and Mic from ear swab.
For the next data set, the system named is Candida albicans. Nature of the data set: Treatment of recurring Candida albicans vaginal yeast infection. Format: in vivo, human. The source says:
A volunteer 57 kg body weight with frequent recurring vaginal Candida albicans infection was diagnosed and treated by their gynecologist over a period of 15 years. The reccurrence frequency was 2-3 flare ups every year for the past 15 years. […] However, 3-6 months later the infection would again appear. Chlorhexidine wash was also tried to prevent recurrence to no effect.
No flare-up has been detected for at least three years. No other treatment was used since there had been no recurrence.

For the next data set, the system named is Rhodococcus equi. Kind of data set: Antibiotic sensitivity testing of the foal's bacterial culture. Format: cell-based.
Data set [1] deals with Kennel cough, Giardia and Isospora infections. Kind of data set: Treatment of Kennel cough, Giardia and Isospora infections in a dog.
A short description of data set [2]: Treatment of chronic suppurative prostatitis / prostate abscess in a dog. The settings on record: in vivo. How it is done:
An eight year old Akita dog presented suffering from chronic, recurring prostatitis with typical clinical symptoms associated with the condition. […] This condition had worsened in the previous eight months, causing significant suffering by the pet and frustration to the dog's owner.
In the second week the dose was adjusted to 5 mg/kg inj. twice/day. […] The treatment continued in the 3rd week with 2 mg/bw kg dose twice/day.

The conditions of data set [3]: cited from earlier work.
For data set [4] the following is noted: known substances; cited from earlier work.
For another data set, the system named is bacterial pneumonia. Kind of data set: Treatment of bacterial pneumonia in a cat. Format: in vivo. The settings on record: before the cyanogenic composition.
A further data set has as its system herpes simplex labialis. Nature of the data set: Treatment of herpes simplex labialis. Format: in vivo, human. The source says: A volunteer, 54 kg suffered from recurring herpes outbreaks on the lip. The outbreaks happened about every two years and were associated with immune compromised conditions like stress, concurrent upper respiratory infection and menstrual cycles. The outbreaks last approximately 7-9 days and no spontaneous remission of an outbreak had occurred.
The outbreaks always followed a predictable progression and included a tingling sensation, redness and swelling of about 5 mm area on upper right side middle of the lip and 2-4 days after the onset blisters appear that turns into a scab that last about 5 days. The only medicine that could slightly alter this course was Zovirax crema/acyclovir/if the treatment began at the first sign of an outbreak. No other medicine had any effect on alleviating symptoms. With the treatment of Zovirax the blister size smaller (about 4 mm in diameter) and the duration of the outbreak was shorter (to approximately 5 days).
Topical and oral cyanogenic composition medications were applied simultaneously with no other medication.

In another data set the test system is respiratory infection. Nature of the data set: Treatment of therapy resistant respiratory infection in a cat. Format: in vivo. Particulars: clavamox oral, five days later convenia injections. How it is done:
A two year old domestic short hair cat, six pounds, body weight, temp 102° F. emaciated cat came from a cat holding facility and was FIV and FELV negative. Its clinical symptoms: very severe wheezing respiration, very moist cough, frequent sneezing all day beginning 10 days previously. The cat had been treated in another hospital previously with antibiotics: first, clavamox oral/contains amoxicillin and with β-lactamase-inhibiting effect clavulanic acid known as for powerful, broad-spectrum antimicrobial activity. […] CBC chemistry blood work was performed. The only abnormality was a 40% increase in Monocytes above the highest normal, and mild anemia.

With `COCC1=C(C(=O)O)N2C(=O)[C@@H](NC(=O)/C(=N\OC)c3csc(N)n3)[C@H]2SC1` [cefpodoxime], in the data set with Pseudomonas Aeruginosa (Pseudomonas aeruginosa), the MIC was no less than 8 µg/mL. Moreover, the sensitive / resistant entry in the data set on Pseudomonas Aeruginosa (ear swab isolate) is given as “R”.

With `Cc1nnc(SCC2=C(C(=O)O)N3C(=O)[C@@H](NC(=O)Cn4cnnn4)[C@H]3SC2)s1` [cefazolin], the sensitive / resistant entry with Pseudomonas Aeruginosa (ear swab isolate) is reported as “R”.

`[H]/N=C(\N/C(=N/[H])NCCCCCCNC(=N)NC(=N)Nc1ccc(Cl)cc1)Nc1ccc(Cl)cc1` [Chlorhexidine wash, Chlorhexidine]: in the data set with Candida albicans (in vivo), the prevention of recurrence entry is recorded as “no effect”.

For `CC[C@H]1OC(=O)[C@H](C)[C@@H](O[C@H]2C[C@@](C)(OC)[C@@H](O)[C@H](C)O2)[C@H](C)[C@@H](O[C@@H]2O[C@H](C)C[C@H](N(C)C)[C@H]2O)[C@](C)(O)C[C@@H](C)C(=O)[C@H](C)[C@@H](O)[C@]1(C)O` [erythromycin], the antibiotic sensitivity entry in the data set with Rhodococcus equi is on record as “resistance”.

As for `CCN1CCN(c2cc3c(cc2F)c(=O)c(C(=O)O)cn3C2CC2)CC1` [enrofloxacin], in data set [1] (switched to Enrofloxacin, Clavomox continued), the “outcome of previous treatment” value is “the symptoms continued to worsen”. Besides, the “outcome of previous antibiotic treatment” value in [2] is recorded as “only temporary mild improvement, followed by a quick relapse”. The minimal inhibitory concentration (MIC) in the data set on Pseudomonas Aeruginosa (Pseudomonas aeruginosa) was no more than 0.5 µg/mL. Moreover, the sensitive / resistant entry with Pseudomonas Aeruginosa (ear swab isolate) is listed as “S”.

Regarding `N#C[C@H](O[C@@H]1O[C@H](CO[C@@H]2O[C@H](CO)[C@@H](O)[C@H](O)[C@H]2O)[C@@H](O)[C@H](O)[C@H]1O)c1ccccc1` [amygdalin], the LD50 result in data set [3] (literature) is “about 900 mg/body weight kg”. Further, the “LD 50 of oral amygdalin” value in data set [3] (oral, scientific literature) was 400 to 900 mg/kg.

Take `[Cl-].[Na+]` [Table salt]: in data set [4], the 50% lethal dose (LD50) is 300 mg/kg.

`CO/N=C(\C(=O)N[C@@H]1C(=O)N2C(C(=O)O)=C(CSC(=O)c3ccco3)CS[C@H]12)c1csc(N)n1` [ceftiofur]: in the data set with Pseudomonas Aeruginosa (Pseudomonas aeruginosa), the MIC is no less than 8 µg/mL. Moreover, the sensitive / resistant result in the data set with Pseudomonas Aeruginosa (ear swab isolate) is on record as “R”.

For the molecule `CC[C@H]1OC(=O)[C@H](C)[C@@H](O[C@H]2C[C@@](C)(OC)[C@@H](O)[C@H](C)O2)[C@H](C)[C@@H](O[C@@H]2O[C@H](C)C[C@H](N(C)C)[C@H]2O)[C@](C)(O)C[C@@H](C)CN(C)[C@H](C)[C@@H](O)[C@]1(C)O` [Azithromycin], the “outcome of previous treatment” value in data set [1] (Azithromycin and Clavamox at therapeutic dose, about 2 weeks) is “the symptoms did not abate”.

`CO[C@@]1(NC(=O)Cc2cccs2)C(=O)N2C(C(=O)O)=C(COC(N)=O)CS[C@@H]21` [cefoxitin] returned an MIC against Pseudomonas Aeruginosa (Pseudomonas aeruginosa) of no less than 32 µg/mL. In the data set with Pseudomonas Aeruginosa (ear swab isolate), the sensitive / resistant result was “R”.

On to `CC1(C)S[C@@H]2[C@H](NC(=O)[C@H](N)c3ccc(O)cc3)C(=O)N2[C@H]1C(=O)O` [amoxicillin], for which, in the data set with bacterial pneumonia, the “outcome of previous treatment” value is “slight improvement followed by a relapse”. In the data set on Pseudomonas Aeruginosa (ear swab isolate), the sensitive / resistant entry is reported as “R”.

For the molecule `CC1=C(C(=O)O)N2C(=O)[C@@H](NC(=O)[C@H](N)c3ccccc3)[C@H]2SC1` [cephalexin], in the data set on Pseudomonas Aeruginosa (ear swab isolate), the sensitive / resistant result is on record as “R”.

Molecule `NCC[C@H](O)C(=O)N[C@@H]1C[C@H](N)[C@@H](O[C@H]2O[C@H](CN)[C@@H](O)[C@H](O)[C@H]2O)[C@H](O)[C@H]1O[C@H]1O[C@H](CO)[C@@H](O)[C@H](N)[C@H]1O` [amikacin] displayed a minimal inhibitory concentration (MIC) against Pseudomonas Aeruginosa (Pseudomonas aeruginosa) of no more than 8 µg/mL. Besides, the sensitive / resistant result with Pseudomonas Aeruginosa (ear swab isolate) was “S”.

Consider `CN1CCN(c2c(F)cc3c(=O)c(C(=O)O)cn4c3c2OCN4C)CC1` [marbofloxacin], for which the minimal inhibitory concentration (MIC) against Pseudomonas Aeruginosa (Pseudomonas aeruginosa) was no more than 1 µg/mL. Besides, the sensitive / resistant result in the data set with Pseudomonas Aeruginosa (ear swab isolate) is “S”.

As for `CO[C@H]1/C=C/O[C@@]2(C)Oc3c(C)c(O)c4c(O)c(c(/C=N/N5CCN(C)CC5)c(O)c4c3C2=O)NC(=O)/C(C)=C\C=C\[C@H](C)[C@H](O)[C@@H](C)[C@@H](O)[C@@H](C)[C@H](OC(C)=O)[C@@H]1C` [rifampin], in the data set on Rhodococcus equi, the antibiotic sensitivity result is recorded as “resistance”.

`Clc1ccccc1C(c1ccccc1)(c1ccccc1)n1ccnc1` [lotrimazole]: in the data set on Candida albicans (oral capsule and cream 5-7 days, infection again after 3-6 months), the “outcome of previous treatment” value was “good symptomatic response”.

Regarding `Nc1nc2c(ncn2COCCO)c(=O)[nH]1` [Zovirax, acyclovir], the “blister size in diameter” value in the data set on herpes simplex labialis (treatment begun at first sign of an outbreak) was “about 4 mm”. Moreover, the “duration of the outbreak” value with herpes simplex labialis (untreated approximately 7-9 days) is “about 5 days”.

Consider gentamicin, for which the sensitive / resistant result in the data set on Pseudomonas Aeruginosa (ear swab isolate) is listed as “S”. Moreover, in the data set with Pseudomonas Aeruginosa (ear swab isolate, heavy growth), the minimal inhibitory concentration (MIC) entry is recorded as “<= 2 ug/ml”.

`CC(=O)Oc1ccccc1C(=O)O` [aspirin]: in data set [4], the LD50 is 200 to 1200 mg/kg.

Turning to `CC1=C(C(=O)O)N2C(=O)[C@@H](NC(=O)[C@H](N)c3ccc(O)cc3)[C@H]2SC1` [cephadroxil], the sensitive / resistant result in the data set on Pseudomonas Aeruginosa (ear swab isolate) was “R”.

For the molecule `CO/N=C(/C(=O)N[C@@H]1C(=O)N2C(C(=O)O)=C([C@@H]3CCCO3)CS[C@H]12)c1csc(N)n1` [cefovecin], the sensitive / resistant entry with Pseudomonas Aeruginosa (ear swab isolate) is listed as “R”.

Regarding `CC1(C)S[C@@H]2[C@H](NC(=O)[C@H](N)c3ccccc3)C(=O)N2[C@H]1C(=O)O` [ampicillin], the sensitive / resistant entry in the data set with Pseudomonas Aeruginosa (ear swab isolate) is “R”.

As for `CO/N=C(/C(=O)N[C@@H]1C(=O)N2C(C(=O)[O-])=C([C@@H]3CCCO3)CS[C@H]12)c1csc(N)n1.[Na+]` [convenia], the “outcome of previous antibiotic treatment” value with respiratory infection is “the condition continued to worsen”.
